Measurements as given in patent publication US7238694B2, “Rifamycin imino derivatives effective against drug-resistant microbes” (Cumbre Pharmaceuticals, Inc., priority 2004, dated 2007).
In brackets after ≈: the same amount, converted by molar mass.

Experiments:
Assay type in all cases: cell-based
[1] = tested on: Streptococcus pyogenes ATCC19615; assay: MIC, microbroth dilution (NCCLS); settings: rifS strain, THY Broth, 37° C., read-out: MIC
[2] = tested on: Streptococcus pneumoniae ATCC6303; assay: MIC, microbroth dilution (NCCLS); settings: rifS strain, THY Broth with 1 mg/mL catalase, 5% CO2, 37° C., read-out: MIC
[3] = tested on: Staphylococcus aureus ATCC29213; assay: MIC, microbroth dilution (NCCLS); settings: rifS strain, Cation-Adjusted Mueller-Hinton Broth, 37° C., read-out: MIC
[4] = tested on: Staphylococcus aureus MT1222 gyrA^A116E grlB^S80F; assay: microbe, parasite or virus in culture; settings: cipR strain, Cation-Adjusted Mueller-Hinton Broth, 37° C., read-out: MIC
[5] = tested on: Staphylococcus epidermidis ATCC12228; assay: MIC, microbroth dilution (NCCLS); settings: rifS strain, Cation-Adjusted Mueller-Hinton Broth, 37° C., read-out: MIC
[6] = tested on: Staphylococcus aureus ATCC29213 rpoB^H418Y; assay: microbe, parasite or virus in culture; settings: Staphylococcus aureus, ATCC29213; rifR strain; Cation-Adjusted Mueller-Hinton Broth, 37° C.; read-out: MIC
[7] = tested on: Haemophilus influenzae ATCC10211; assay: MIC, microbroth dilution (NCCLS); settings: rifS strain, BHI Broth with NAD and hematin, 37° C., read-out: MIC

Row | Structure (SMILES) | MIC [1] [µg/mL] | MIC [2] [µg/mL] | MIC [3] [µg/mL] | MIC [4] [µg/mL] | MIC [5] [µg/mL] | MIC [6] [µg/mL] | MIC [7] [µg/mL]
1 | CO[C@H]1/C=C/O[C@@]2(C)Oc3c(C)c(O)c4c(O)c(c(/C=N/N5CCN(c6nc7c(cc6F)c(=O)c(C(=O)O)cn7-c6ccc(F)cc6F)CC5)c(O)c4c3C2=O)NC(=O)/C(C)=C\C=C\[C@H](C)[C@H](O)[C@@H](C)[C@@H](O)[C@@H](C)[C@H](OC(C)=O)[C@@H]1C [Example 14, 3-[4-[3-Carboxy-1-(2,4-difluoro-phenyl)-6-fluoro-4-oxo-1,4-dihydro-[1,8]naphthyridine-7-yl]-piperazin-1-ylaminomethylenyl]rifamycin SV] | 0.008 to 0.03 (≈ 0.0071 to 0.0266 µM) | 0.008 to 0.06 (≈ 0.0071 to 0.0532 µM) | 0.008 to 1 (≈ 0.0071 to 0.887 µM) | 0.008 to 0.125 (≈ 0.0071 to 0.111 µM) | 0.008 to 0.1 (≈ 0.0071 to 0.0887 µM) | 0.06 to 16 (≈ 0.0532 to 14.2 µM) | 0.125 to 4 (≈ 0.111 to 3.55 µM)
2 | CCn1cc(C(=O)O)c(=O)c2cc(F)c(N3CCN(/N=C/c4c5c(O)c6c(O)c(C)c7c(c6c4O)C(=O)[C@@](C)(O/C=C/[C@H](OC)[C@@H](C)[C@@H](OC(C)=O)[C@H](C)[C@H](O)[C@H](C)[C@@H](O)[C@@H](C)/C=C/C=C(/C)C(=O)N5)O7)CC3)cc21 [Example 18, 3-[4-(3-Carboxy-1-ethyl-6-fluoro-4-oxo-1,4-dihydroquinolin-7-yl)-piperazin-1-yl-aminomethylenyl]-rifamycin SV] | 0.008 to 0.03 (≈ 0.00768 to 0.0288 µM) | 0.008 to 0.06 (≈ 0.00768 to 0.0576 µM) | 0.008 to 1 (≈ 0.00768 to 0.96 µM) | 0.008 to 0.125 (≈ 0.00768 to 0.12 µM) | 0.008 to 0.1 (≈ 0.00768 to 0.096 µM) | 0.06 to 16 (≈ 0.0576 to 15.4 µM) | 0.125 to 4 (≈ 0.12 to 3.84 µM)
3 | CCn1cc(C(=O)O)c(=O)c2cc(F)c(N3CCN(/N=C/c4c5c(O)c6c(O)c(C)c7c(c6c4O)C(=O)[C@@](C)(O/C=C/[C@H](OC)[C@@H](C)[C@@H](OC(C)=O)[C@H](C)[C@H](O)[C@H](C)[C@@H](O)[C@@H](C)/C=C/C=C(/C)C(=O)N5)O7)CC3)nc21 [Example 19, 3-[4-(3-Carboxy-1-ethyl-6-fluoro-4-oxo-1,4-dihydro-[1,8]naphthyridine-7-yl)-piperazin-1-yl-aminomethylenyl]-rifamycin SV] | 0.008 to 0.03 (≈ 0.00767 to 0.0288 µM) | 0.008 to 0.06 (≈ 0.00767 to 0.0575 µM) | 0.008 to 1 (≈ 0.00767 to 0.959 µM) | 0.008 to 0.125 (≈ 0.00767 to 0.12 µM) | 0.008 to 0.1 (≈ 0.00767 to 0.0959 µM) | 0.06 to 16 (≈ 0.0575 to 15.3 µM) | 0.125 to 4 (≈ 0.12 to 3.83 µM)
4 | COc1c(N2CCN(/N=C/c3c4c(O)c5c(O)c(C)c6c(c5c3O)C(=O)[C@@](C)(O/C=C/[C@H](OC)[C@@H](C)[C@@H](OC(C)=O)[C@H](C)[C@H](O)[C@H](C)[C@@H](O)[C@@H](C)/C=C/C=C(/C)C(=O)N4)O6)CC2)c(F)cc2c(=O)c(C(=O)O)cn(C3CC3)c12 [Example 20, 3-[4-(3-Carboxy-1-cyclopropyl-6-fluoro-8-methoxy-4-oxo-1,4-dihydroquinolin-7-yl)-piperazin-1-yl-aminomethylenyl]-rifamycin SV] | 0.008 to 0.03 (≈ 0.00738 to 0.0277 µM) | 0.008 to 0.06 (≈ 0.00738 to 0.0553 µM) | 0.008 to 1 (≈ 0.00738 to 0.922 µM) | 0.008 to 0.125 (≈ 0.00738 to 0.115 µM) | 0.008 to 0.1 (≈ 0.00738 to 0.0922 µM) | 0.06 to 16 (≈ 0.0553 to 14.8 µM) | 0.125 to 4 (≈ 0.115 to 3.69 µM)
5 | COc1c(N2CCN(C3CCN(/N=C/c4c5c(O)c6c(O)c(C)c7c(c6c4O)C(=O)[C@@](C)(O/C=C/[C@H](OC)[C@@H](C)[C@@H](OC(C)=O)[C@H](C)[C@H](O)[C@H](C)[C@@H](O)[C@@H](C)/C=C/C=C(/C)C(=O)N5)O7)CC3)CC2)c(F)cc2c(=O)c(C(=O)O)cn(C3CC3)c12 [Example 25, 3-{4-[1-(3-Carboxy-1-cyclopropyl-6-fluoro-8-methoxy-4-oxo-1,4-dihydroquinolin-7-yl)-piperazin-4-yl]-piperidin-1-yl-aminomethylenyl}-rifamycin SV] | 0.008 to 0.03 (≈ 0.00685 to 0.0257 µM) | 0.008 to 0.06 (≈ 0.00685 to 0.0514 µM) | 0.008 to 1 (≈ 0.00685 to 0.857 µM) | 0.008 to 0.125 (≈ 0.00685 to 0.107 µM) | 0.008 to 0.1 (≈ 0.00685 to 0.0857 µM) | 0.06 to 16 (≈ 0.0514 to 13.7 µM) | 0.125 to 4 (≈ 0.107 to 3.43 µM)
6 | COc1c(N2CCC(N3CCN(/N=C/c4c5c(O)c6c(O)c(C)c7c(c6c4O)C(=O)[C@@](C)(O/C=C/[C@H](OC)[C@@H](C)[C@@H](OC(C)=O)[C@H](C)[C@H](O)[C@H](C)[C@@H](O)[C@@H](C)/C=C/C=C(/C)C(=O)N5)O7)CC3)CC2)c(F)cc2c(=O)c(C(=O)O)cn(C3CC3)c12 [Example 27, 3-{4-[1-(3-Carboxy-1-cyclopropyl-6-fluoro-8-methoxy-4-oxo-1,4-dihydroquinolin-7-yl)-piperidin-4-yl]-piperazin-1-yl-aminomethylenyl}-rifamycin SV] | 0.008 to 0.03 (≈ 0.00685 to 0.0257 µM) | 0.008 to 0.06 (≈ 0.00685 to 0.0514 µM) | 0.008 to 1 (≈ 0.00685 to 0.857 µM) | 0.008 to 0.125 (≈ 0.00685 to 0.107 µM) | 0.008 to 0.1 (≈ 0.00685 to 0.0857 µM) | 0.06 to 16 (≈ 0.0514 to 13.7 µM) | 0.125 to 4 (≈ 0.107 to 3.43 µM)
7 | COc1c(N2CCN(C(=O)C3CCN(/N=C/c4c5c(O)c6c(O)c(C)c7c(c6c4O)C(=O)[C@@](C)(O/C=C/[C@H](OC)[C@@H](C)[C@@H](OC(C)=O)[C@H](C)[C@H](O)[C@H](C)[C@@H](O)[C@@H](C)/C=C/C=C(/C)C(=O)N5)O7)CC3)CC2)c(F)cc2c(=O)c(C(=O)O)cn(C3CC3)c12 [Example 32, 3-{4-[4-(3-Carboxy-1-cyclopropyl-6-fluoro-8-methoxy-4-oxo-1,4-dihydroquinolin-7-yl)-piperazine-1-yl-carbonyl]-piperidin-1-yl-aminomethylenyl}-rifamycin SV] | 0.008 to 0.03 (≈ 0.00669 to 0.0251 µM) | 0.008 to 0.06 (≈ 0.00669 to 0.0502 µM) | 0.008 to 1 (≈ 0.00669 to 0.837 µM) | 0.008 to 0.125 (≈ 0.00669 to 0.105 µM) | 0.008 to 0.1 (≈ 0.00669 to 0.0837 µM) | 0.06 to 16 (≈ 0.0502 to 13.4 µM) | 0.125 to 4 (≈ 0.105 to 3.35 µM)
